Measured values reported in patent US11040038B2, “Methods for treating diseases associated with abnormal ACVR1 expression and ACVR1 inhibitors for use in the same” (Sumitomo Dainippon Pharma Oncology, Inc., priority 2018, dated 2021).
In brackets after ≈: the same amount, converted by molar mass. Like-named read-outs stand apart in the source and are kept apart here.

What was measured:
Format in all cases: physicochemical
[1] = Approximate solubility of freebase in 12 solvents at RT; conditions: thermodynamic from solid
Method: Approximate solubility of freebase Form A (812608-05-A) was measured in 12 solvents at RT. For each experiment, approximately 2 mg of sample was added into a 3 mL glass vial. Solvents in Table 35 were then added step wise (50, 50, 200, 200, 500 μL) into the vials until the solids were dissolved visually or a total volume of 1 mL was reached. Solubility results summarized in Table 35 were used to guide the solvent selection in salt screening design.

[2] = Hygroscopicity by DVS at 25° C.; conditions: for Hygroscopicity (%), water uptake: 25° C./80% RH
Method: A DVS isotherm plot was collected at 25° C. to investigate the solid form stability as a function of humidity. All the anhydrous samples were pre-equilibrated at 0% RH to remove the unbounded solvent or water before getting started. As evidenced by the water uptake of […] up to 80% RH, freebase Form A and both two salt forms were slightly hygroscopic, and no solid form change was observed after DVS evaluation (FIGS. 20A, 20B, 20C, 20D, 20E, and 20F).
Dynamic Vapor Sorption (DVS) was measured via a SMS (Surface Measurement Systems) DVS Intrinsic. The relative humidity at 25° C. were calibrated against deliquescence point of LiCl, Mg(NO3)2 and KCl.

[3] = Kinetic solubility in pH 2, 5 and 7 buffers at RT; conditions: for solubility at 1 h / solubility at 2 h / solubility at 4 h / solubility at 24 h: 19 °C, aqueous buffer, thermodynamic from solid, read-out: S: solubility; for solubility at 1 h / solubility at 2 h / solubility at 4 h / solubility at 24 h / FC: solid form change / pH: final pH of supernatant / S: solubility: RT
Method: Kinetic solubility of two salt leads was measured in pH 2, 5, and 7 buffers to evaluate their solubility and disproportionation risk, using freebase Form A (812608-05-A) as control. […] After centrifugation, supernatants were collected for HPLC and pH tests, and wet cakes were collected for XRPD characterization. If clear solutions were obtained, accurate concentration was measured for the solutions.
Agilent 1100/1260 HPLC was utilized and detailed chromatographic conditions for purity and solubility measurement are listed in Table 39.

[4] = Solid-state stability under 40° C./75% RH for one week; conditions: for Solid-state Stability: 40° C./75% RH for at least one week; for FC: form change based on XRPD results / Purity vs. Initial (%): 40° C./75% RH; for FC: form change based on XRPD results / Purity vs. Initial (%) / Purity (area %): one week; for Purity (area %): after 40° C./75% RH, HPLC
Method: Solid-state stability of freebase Form A, HCl salt Form A and fumarate Form A was evaluated under 40° C./75% RH for one week. Stability samples were characterized by XRPD to check any solid form change and by HPLC to check purity change.

Estimated pKa values = conditions: method not stated

SMILES: COc1cc(Nc2nccc(Nc3cccnc3-c3ccccn3)n2)ccc1N1CCN(C)CC1 [Freebase Form A, N^4-(2,2′-bipyridin-3-yl)-N^2-(3-methoxy-4-(4-methylpiperazin-1-yl)phenyl)pyrimidine-2,4-diamine]
- solubility ([1]; organic solvent or mixture, ACN): < 2000 µg/mL
- solubility ([1]; organic solvent or mixture, Acetone): < 2400 µg/mL
- solubility ([1]; organic solvent or mixture, EtOAc): < 2500 µg/mL
- solubility ([1]; organic solvent or mixture, EtOH): 2100 to 4200 µg/mL (≈ 4.48 to 8.96 mM)
- solubility ([1]; organic solvent or mixture, IPA): < 2400 µg/mL
- solubility ([1]; organic solvent or mixture, IPAc): < 2400 µg/mL
- solubility ([1]; organic solvent or mixture, MIBK): 1900 to 3800 µg/mL (≈ 4.05 to 8.11 mM)
- solubility ([1]; organic solvent or mixture, MeOH): 2400 to 4800 µg/mL (≈ 5.12 to 10.2 mM)
- solubility ([1]; organic solvent or mixture, THF): 3600 to 6000 µg/mL (≈ 7.68 to 12.8 mM)
- solubility ([1]; organic solvent or mixture, Toluene): 2000 to 4000 µg/mL (≈ 4.27 to 8.54 mM)
- solubility ([1]; organic solvent or mixture, n-Heptane): < 2100 µg/mL
- solubility ([1]; water, H2O): < 1900 µg/mL
- Hygroscopicity (%), water uptake [2]: (0.60) %
- solubility at 1 h ([3]; pH 2 buffer, 1 hr): 4300 µg/mL (≈ 9.18 mM)
- solubility at 2 h ([3]; pH 2 buffer, 2 hrs): 4100 µg/mL (≈ 8.75 mM)
- solubility at 4 h ([3]; pH 2 buffer, 4 hrs): 4100 µg/mL (≈ 8.75 mM)
- solubility at 24 h ([3]; pH 2 buffer, 24 hrs): 3200 µg/mL (≈ 6.83 mM)
- solubility at 1 h ([3]; pH 5 buffer, 1 hr): 7400 µg/mL (≈ 15.8 mM)
- solubility at 2 h ([3]; pH 5 buffer, 2 hrs): 7200 µg/mL (≈ 15.4 mM)
- solubility at 4 h ([3]; pH 5 buffer, 4 hrs): 6300 µg/mL (≈ 13.4 mM)
- solubility at 24 h ([3]; pH 5 buffer, 24 hrs): 6600 µg/mL (≈ 14.1 mM)
- solubility at 1 h ([3]; pH 7 buffer, 1 hr): 0.4 µg/mL (≈ 0.000854 mM)
- solubility at 2 h ([3]; pH 7 buffer, 2 hrs): 1 µg/mL (≈ 0.00213 mM)
- solubility at 4 h ([3]; pH 7 buffer, 4 hrs): 0.4 µg/mL (≈ 0.000854 mM)
- solubility at 24 h ([3]; pH 7 buffer, 24 hrs): 8.9 µg/mL (≈ 0.019 mM)
- FC: solid form change ([3]; pH 2 buffer, 1 hr): No
- pH: final pH of supernatant ([3]; pH 2 buffer, 1 hr): 6.2
- FC: solid form change ([3]; pH 2 buffer, 2 hrs): No
- pH: final pH of supernatant ([3]; pH 2 buffer, 2 hrs): 6.2
- FC: solid form change ([3]; pH 2 buffer, 4 hrs): No
- pH: final pH of supernatant ([3]; pH 2 buffer, 4 hrs): 6.2
- FC: solid form change ([3]; pH 2 buffer, 24 hrs): No
- pH: final pH of supernatant ([3]; pH 2 buffer, 24 hrs): 6.1
- FC: solid form change ([3]; pH 5 buffer, 1 hr): No*
- pH: final pH of supernatant ([3]; pH 5 buffer, 1 hr): 6.2
- FC: solid form change ([3]; pH 5 buffer, 2 hrs): No*
- pH: final pH of supernatant ([3]; pH 5 buffer, 2 hrs): 6.3
- FC: solid form change ([3]; pH 5 buffer, 4 hrs): No
- pH: final pH of supernatant ([3]; pH 5 buffer, 4 hrs): 6.4
- FC: solid form change ([3]; pH 5 buffer, 24 hrs): No
- pH: final pH of supernatant ([3]; pH 5 buffer, 24 hrs): 6.4
- FC: solid form change ([3]; pH 7 buffer, 1 hr): No
- pH: final pH of supernatant ([3]; pH 7 buffer, 1 hr): 7.0
- FC: solid form change ([3]; pH 7 buffer, 2 hrs): No
- pH: final pH of supernatant ([3]; pH 7 buffer, 2 hrs): 6.9
- FC: solid form change ([3]; pH 7 buffer, 4 hrs): No
- pH: final pH of supernatant ([3]; pH 7 buffer, 4 hrs): 7.0
- FC: solid form change ([3]; pH 7 buffer, 24 hrs): No
- pH: final pH of supernatant ([3]; pH 7 buffer, 24 hrs): 7.0
- Solid-state Stability [4]: Good physicochemical properties under 40° C./75%
- FC: form change based on XRPD results [4]: No
- Purity vs. Initial (%) [4]: 100.0%
- Purity (area %) [4]: 99.18 area %
- pKa (Estimated pKa values): 7.5

SMILES: COc1cc(Nc2nccc(Nc3cccnc3-c3ccccn3)n2)ccc1N1CCN(C)CC1.Cl [HCl Salt Form A, N^4-(2,2′-bipyridin-3-yl)-N^2-(3-methoxy-4-(4-methylpiperazin-1-yl)phenyl)pyrimidine-2,4-diamine anhydrous hydrochloric acid salt]
- Water uptake ([2]; 25° C., 95% RH): 1.40%
- Hygroscopicity (%), water uptake [2]: (0.86) %
- Kinetic Solubility compared with freebase Form A ([3]; pH 2, 5 and 7 buffers): showed increased solubility in pH 2, 5 and 7 buffers;
- S: solubility ([3]; pH 2 buffer, 1 hr): 13400 µg/mL
- pH: final pH of supernatant ([3]; pH 2 buffer, 1 hr): 5.5
- S: solubility ([3]; pH 2 buffer, 2 hrs): 13300 µg/mL
- pH: final pH of supernatant ([3]; pH 2 buffer, 2 hrs): 5.6
- S: solubility ([3]; pH 2 buffer, 4 hrs): 13200 µg/mL
- pH: final pH of supernatant ([3]; pH 2 buffer, 4 hrs): 5.6
- S: solubility ([3]; pH 2 buffer, 24 hrs): 11800 µg/mL
- pH: final pH of supernatant ([3]; pH 2 buffer, 24 hrs): 5.6
- S: solubility ([3]; pH 5 buffer, 1 hr): 13200 µg/mL
- pH: final pH of supernatant ([3]; pH 5 buffer, 1 hr): 5.7
- S: solubility ([3]; pH 5 buffer, 2 hrs): 13000 µg/mL
- pH: final pH of supernatant ([3]; pH 5 buffer, 2 hrs): 5.7
- S: solubility ([3]; pH 5 buffer, 4 hrs): 13000 µg/mL
- pH: final pH of supernatant ([3]; pH 5 buffer, 4 hrs): 5.7
- S: solubility ([3]; pH 5 buffer, 24 hrs): 11600 µg/mL
- pH: final pH of supernatant ([3]; pH 5 buffer, 24 hrs): 5.7
- FC: solid form change ([3]; pH 7 buffer, 1 hr): Yes
- S: solubility ([3]; pH 7 buffer, 1 hr): 13500 µg/mL
- pH: final pH of supernatant ([3]; pH 7 buffer, 1 hr): 7.0
- FC: solid form change ([3]; pH 7 buffer, 2 hrs): Yes
- S: solubility ([3]; pH 7 buffer, 2 hrs): 9600 µg/mL
- pH: final pH of supernatant ([3]; pH 7 buffer, 2 hrs): 6.9
- FC: solid form change ([3]; pH 7 buffer, 4 hrs): Yes
- S: solubility ([3]; pH 7 buffer, 4 hrs): 9400 µg/mL
- pH: final pH of supernatant ([3]; pH 7 buffer, 4 hrs): 6.9
- FC: solid form change ([3]; pH 7 buffer, 24 hrs): Yes
- S: solubility ([3]; pH 7 buffer, 24 hrs): 210 µg/mL
- pH: final pH of supernatant ([3]; pH 7 buffer, 24 hrs): 6.4
- Solid-state Stability [4]: Good physicochemical properties under 40° C./75%
- FC: form change based on XRPD results [4]: No
- Purity vs. Initial (%) [4]: 99.9%
- Purity (area %) [4]: 99.54 area %
